Assay results taken from paper PMC7123778 (ACS infectious diseases, 2019).

How the values were obtained:
H. pylori G27 = settings: H. pylori G27, liquid media; cited from earlier work
[1] = cited from earlier work
rat liver TrxR = molecular target: T1, rat liver TrxR (Rattus norvegicus, UniProt O89049); experiment: TrxR inhibition assay; assay type: biochemical; settings: purified rat liver TrxR, DTNB, ΔA412 after 10 minutes
T1 sequence (O89049 1-499): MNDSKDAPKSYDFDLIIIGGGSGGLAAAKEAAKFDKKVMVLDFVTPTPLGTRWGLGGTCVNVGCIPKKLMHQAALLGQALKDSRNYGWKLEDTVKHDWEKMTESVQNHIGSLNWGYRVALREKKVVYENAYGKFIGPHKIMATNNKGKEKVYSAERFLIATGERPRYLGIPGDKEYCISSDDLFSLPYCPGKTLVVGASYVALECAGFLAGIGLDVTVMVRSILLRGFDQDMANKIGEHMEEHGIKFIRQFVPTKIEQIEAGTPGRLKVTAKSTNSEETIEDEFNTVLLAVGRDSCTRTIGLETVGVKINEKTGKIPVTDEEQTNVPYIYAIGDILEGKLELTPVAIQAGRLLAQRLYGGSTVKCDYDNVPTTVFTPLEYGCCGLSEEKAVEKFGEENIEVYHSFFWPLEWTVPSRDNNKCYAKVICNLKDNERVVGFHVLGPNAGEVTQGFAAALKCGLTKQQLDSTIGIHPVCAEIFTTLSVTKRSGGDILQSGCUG

free thiols in H. pylori = experiment: Free thiol depletion assay; assay type: cell-based, Helicobacter pylori; settings: H. pylori treated with 5.0 μM for four hours

## CC(=O)OC[C@H]1O[C@@H]([S-])[C@H](OC(C)=O)[C@@H](OC(C)=O)[C@@H]1OC(C)=O.CCP(CC)CC.[Au+] [Compound 1, auranofin]
H. pylori G27
  previously reported MIC: 1.2 µM
[1]
  logP: 0.56

## CC(=O)NC1C([S][Au][PH](C)(C)C)OC(CO)C(O)C1O (centres unmarked) [Compound 6]
Rat liver TrxR
  half maximal inhibitory concentration (IC50) of TrxR: inhibited TrxR most effectively
[1]
  logP: −2.03

## CC1(C)S[C@@H]2[C@H](NC(=O)[C@H](N)c3ccc(O)cc3)C(=O)N2[C@H]1C(=O)O [amoxicillin]
Free thiols in H. pylori
  free thiol concentration in comparison to untreated samples: no differences in free thiol concentrations
